Source: ChEMBL document CHEMBL4819024, “Synthesis and evaluation of andrographolide derivatives as potent anti-osteoporosis agents in vitro and in vivo” (Eur J Med Chem, 2021)
Calls of active or inactive are those of the source. The rule behind the calls is not given here.

Columns and labels:
[1] = test system: BMMC; assay: Anti-osteoporosis activity in C57BL/6 mouse BMM cells assessed as inhibition of M-CSF/RANKL-induced osteoclastogenesis by measuring reduction in multinucleated TRAP+ cells incubated for 5 days with media replenishment for every 48 hrs measured by TRAP-staining based analysis; type: functional, cell-based; conditions: C57BL/6, BMMC
[2] = Cytotoxicity against C57BL/6 mouse BMM cells assessed as reduction in cell viability measured after 48 hrs in presence of M-CSF by CCK8 assay; type: cell-based, BMMC; conditions: BMM cells (bone marrow-derived)
[3] = test system: BMMC; assay: Anti-osteoporosis activity in C57BL/6 mouse BMM cells assessed as inhibition of M-CSF/RANKL-induced bone resorption by measuring suppression of reabsorbing pits formation after 48 hrs by hydroxyapatite assay using Leica inverted microscope; type: functional, cell-based; conditions: dose 1-10 µM
[4] = test system: Mus musculus; assay: Antiosteoporotic activity against OVX-induced bone loss C57BL/6 mouse model assessed as increase in bone volume/total bone volume in femoral metaphysis at 10 mg/kg, po QD for 4 weeks; type: functional, organism-based; conditions: dose 10.0 mg/kg/day
[5] = test system: Mus musculus; assay: Antiosteoporotic activity against OVX-induced bone loss C57BL/6 mouse model assessed as increase in trabecular thickness in femoral metaphysis at 10 mg/kg, po QD for 4 weeks; type: functional, organism-based; conditions: dose 10.0 mg/kg/day
[6] = test system: Mus musculus; assay: Antiosteoporotic activity against OVX-induced bone loss C57BL/6 mouse model assessed as increase in trabecular number in femoral metaphysis at 10 mg/kg, po QD for 4 weeks; type: functional, organism-based; conditions: dose 10.0 mg/kg/day
[7] = test system: Mus musculus; assay: Antiosteoporotic activity against OVX-induced bone loss C57BL/6 mouse model assessed as decrease in trabecular spacing in femoral metaphysis at 10 mg/kg, po QD for 4 weeks; type: functional, organism-based; conditions: dose 10.0 mg/kg/day
[8] = test system: Mus musculus; assay: Antiosteoporotic activity against OVX-induced bone loss C57BL/6 mouse model assessed as decrease in ACP5 level in serum at 10 mg/kg, po QD for 4 weeks; type: functional, organism-based; conditions: dose 10.0 mg/kg/day

SMILES	IC50 [1]	further results
C=C1CC[C@@H]2[C@](C)(CNCCc3ccc(C(F)(F)F)cc3)[C@H](O)CC[C@@]2(C)[C@@H]1/C=C/C1=CCOC1=O	2980 nM	–
C=C1CC[C@@H]2[C@](C)(CNCCc3cccc(OC)c3)[C@H](O)CC[C@@]2(C)[C@@H]1/C=C/C1=CCOC1=O	5450 nM	–
C=C1CC[C@H]2[C@@](C)(CC[C@@H](O)[C@@]2(C)C(=O)NCCc2ccc(F)cc2)[C@@H]1/C=C/C1=CCOC1=O	> 30000 nM	–
C=C1CC[C@H]2[C@@](C)(CC[C@@H](O)[C@@]2(C)C(=O)NCc2ccccc2)[C@@H]1/C=C/C1=CCOC1=O	19400 nM	–
C=C1CC[C@@H]2[C@](C)(CNCCc3ccc(C)cc3)[C@H](O)CC[C@@]2(C)[C@@H]1/C=C/C1=CCOC1=O	870 nM	–
C=C1CC[C@H]2[C@@](C)(CC[C@@H](O)[C@@]2(C)C(=O)NCc2ccc(Br)cc2)[C@@H]1/C=C/C1=CCOC1=O	3450 nM	–
C=C1CC[C@@H]2[C@](C)(CNCc3ccc([N+](=O)[O-])cc3)[C@H](O)CC[C@@]2(C)[C@@H]1/C=C/C1=CCOC1=O	1340 nM	–
C=C1CC[C@@H]2[C@](C)(CNCCc3ccc(OC)cc3)[C@H](O)CC[C@@]2(C)[C@@H]1/C=C/C1=CCOC1=O	1880 nM	–
C=C1CC[C@@H]2[C@](C)(CNCc3nccs3)[C@H](O)CC[C@@]2(C)[C@@H]1/C=C/C1=CCOC1=O	700 nM	–
C=C1CC[C@@H]2[C@](C)(CO)[C@H](O)CC[C@@]2(C)[C@@H]1/C=C/C1=CCOC1=O	8340 nM	CC50 at 48 h [2]: > 30000 nM
C=C1CC[C@H]2[C@@](C)(CC[C@@H](O)[C@@]2(C)C(=O)NCCc2ccccc2)[C@@H]1/C=C/C1=CCOC1=O	> 30000 nM	–
C=C1CC[C@@H]2[C@](C)(CO)[C@H](O)CC[C@@]2(C)[C@@H]1C/C=C1\C=COC1=O	2770 nM	CC50 at 48 h [2]: 20600 nM
C=C1CC[C@@H]2[C@](C)(CNCc3ccc(OC)cc3)[C@H](O)CC[C@@]2(C)[C@@H]1/C=C/C1=CCOC1=O	750 nM	–
C=C1CC[C@@H]2[C@](C)(CNCc3ccccc3)[C@H](O)CC[C@@]2(C)[C@@H]1/C=C/C1=CCOC1=O	960 nM	–
C=C1CC[C@@H]2[C@](C)(CO)[C@H](O)CC[C@@]2(C)[C@@H]1C/C=C(/C(=O)O)[C@H](O)CO	> 30000 nM	CC50 at 48 h [2]: > 30000 nM
C=C1CC[C@@H]2[C@](C)(CNCc3ccc(OC)c(OC)c3)[C@H](O)CC[C@@]2(C)[C@@H]1/C=C/C1=CCOC1=O	3740 nM	–
C=C1CC[C@@H]2[C@](C)(CO)[C@H](O)CC[C@@]2(C)[C@@H]1CCC1C(=O)OC[C@H]1O (stereo partly drawn)	> 30000 nM	CC50 at 48 h [2]: > 30000 nM
C=C1CC[C@@H]2[C@](C)(CNCc3ccc(C)cc3)[C@H](O)CC[C@@]2(C)[C@@H]1/C=C/C1=CCOC1=O	740 nM	–

SMILES	IC50 [1]	further results
C=C1CC[C@@H]2[C@](C)(CNCc3ccc4c(c3)CC=N4)[C@H](O)CC[C@@]2(C)[C@@H]1/C=C/C1=CCOC1=O	550 nM	–
C=C1CC[C@@H]2[C@](C)(CNCCc3ccccc3)[C@H](O)CC[C@@]2(C)[C@@H]1/C=C/C1=CCOC1=O	1020 nM	–
C=C1CC[C@@H]2[C@](C)(CNCCc3ccc(F)cc3)[C@H](O)CC[C@@]2(C)[C@@H]1/C=C/C1=CCOC1=O	480 nM	–
C=C1CC[C@@H]2[C@](C)(CNCc3ccc(O)c(O)c3)[C@H](O)CC[C@@]2(C)[C@@H]1/C=C/C1=CCOC1=O	9440 nM	–
C=C1CC[C@@H]2[C@](C)(CNCc3ccncc3)[C@H](O)CC[C@@]2(C)[C@@H]1/C=C/C1=CCOC1=O	2030 nM	–
C=C1CC[C@@H]2[C@](C)(CNCc3ccc(C#N)cc3)[C@H](O)CC[C@@]2(C)[C@@H]1/C=C/C1=CCOC1=O	1130 nM	–
C=C1CC[C@@H]2[C@](C)(CNCCc3cccs3)[C@H](O)CC[C@@]2(C)[C@@H]1/C=C/C1=CCOC1=O	3020 nM	–
C=C1CC[C@@H]2[C@](C)(CNCc3cccc(OC)c3)[C@H](O)CC[C@@]2(C)[C@@H]1/C=C/C1=CCOC1=O	780 nM	–
NCCCC(O)(P(=O)(O)O)P(=O)(O)O [ALENDRONATE SODIUM]	1710 nM	–
C=C1CC[C@@H]2[C@](C)(CNCc3ccc(Cl)cc3)[C@H](O)CC[C@@]2(C)[C@@H]1/C=C/C1=CCOC1=O	420 nM	–
C=C1CC[C@H]2[C@@](C)(CC[C@@H](O)[C@@]2(C)C(=O)NCc2ccc(OC)cc2)[C@@H]1/C=C/C1=CCOC1=O	6530 nM	–
C=C1CC[C@@H]2[C@](C)(CNCc3ccc(Br)cc3)[C@H](O)CC[C@@]2(C)[C@@H]1/C=C/C1=CCOC1=O	430 nM	–
C=C1CC[C@@H]2[C@](C)(CNCc3ccco3)[C@H](O)CC[C@@]2(C)[C@@H]1/C=C/C1=CCOC1=O	1830 nM	–
C=C1CC[C@@H]2[C@](C)(CNCc3cccs3)[C@H](O)CC[C@@]2(C)[C@@H]1/C=C/C1=CCOC1=O	1070 nM	–
C=C1CC[C@H]2[C@@](C)(CC[C@@H](O)[C@@]2(C)C(=O)NCCc2ccc(OC)cc2)[C@@H]1/C=C/C1=CCOC1=O	> 30000 nM	–
C=C1CC[C@@H]2[C@](C)(CO)[C@H](O)CC[C@@]2(C)[C@@H]1C/C=C1/C(=O)OC[C@H]1O [ANDROGRAPHOLIDE]	1010 nM	CC50 at 48 h [2]: 10300 nM; Activity [3]: Active; Activity [4]: Active; Activity [5]: Active; Activity [6]: Active; Activity [7]: Active; Activity [8]: Active
C=C1CC[C@H]2[C@@](C)(CC[C@@H](O)[C@@]2(C)C(=O)NCCc2cccs2)[C@@H]1/C=C/C1=CCOC1=O	> 30000 nM	–
C=C1CC[C@@H]2[C@](C)(CO)[C@H](O)CC[C@@]2(C)[C@@H]1CC=O	> 30000 nM	CC50 at 48 h [2]: > 30000 nM
